Source: patent US10092537B2, “Use for PAI-1 inhibitor” (RENASCIENCE CO., LTD., priority 2013, dated 2018)

Experiments:
CML cells = assay: Chronic myelogenous leukemia model mice, imatinib with compound d or compound e (Experimental Example 17); assay type: in vivo; details: imatinib 150 mg/kg/day + compound d or compound e 10 mg/kg/day via gavage, day 8 to day 14
Method: Group 1: placebo group (physiological saline was administered via gavage)
Group 2: imatinib group (imatinib [150 mg/kg/day] was administered via gavage)
Group 3: imatinib+compound d group (imatinib [150 mg/kg/day] and compound d [10 mg/kg/day] were administered via gavage)
Group 4: imatinib+compound e group (imatinib [150 mg/kg/day] and compound e [10 mg/kg/day] were administered via gavage)
8 days after (day 8) the day (day 0) on which CML cells were intravenously inoculated, administration of test drugs to the groups was started. The placebo group and the imatinib group were administered the respective test drugs once a day from day 8 to day 14 (7 doses in total). The imatinib+compound d group and imatinib+compound e group were administered imatinib once a day from day 8 to day 14 (7 doses in total), and also administered compound d or e once a day from day 8 to day 14 (7 doses in total).

hematopoietic stem cells [1] = assay: Hematopoietic recovery after bone-marrow transplantation, compounds a, b, c (Experimental Example 5); assay type: in vivo, mice; details: compound a 100 mg/kg oral 4 days; compounds b and c 10 mg/kg oral 6 consecutive days after bone-marrow transplantation
Method: The procedures of Experimental Examples 4 (1) and 4 (4) were repeated using compounds b and c, instead of compound a, as a test compound.
Compound a was orally administered in an amount of 100 mg/kg for 4 consecutive days after bone-marrow transplantation. Compounds b and c were orally administered in an amount of 10 mg/kg for 6 consecutive days after bone-marrow transplantation.
Bone marrow was collected 1 and 3 weeks after bone-marrow transplantation. The total number of the whole bone-marrow cells (FIG. 9E), the proportion (%) of LSK-CD34 negative cells in the whole bone marrow (FIG. 9A), the total number of LSK-CD34 negative cells in the whole bone marrow (FIG. 9B), the proportion (%) of Lin-SLAM cells in the whole bone marrow (FIG. 9C), and the total number of Lin-SLAM cells in the whole bone marrow (FIG. 9D) were measured. The results are shown in the above-stated figures.

human PAI-1 [2] = target: T1, human PAI-1 (Homo sapiens, UniProt P05121); assay: Measurement of PAI-1 inhibitory activity of compound group 1 (t-PA, S-2288 chromogenic substrate); details: read-out: PAI-1 activity %
T1 sequence (P05121 24-402): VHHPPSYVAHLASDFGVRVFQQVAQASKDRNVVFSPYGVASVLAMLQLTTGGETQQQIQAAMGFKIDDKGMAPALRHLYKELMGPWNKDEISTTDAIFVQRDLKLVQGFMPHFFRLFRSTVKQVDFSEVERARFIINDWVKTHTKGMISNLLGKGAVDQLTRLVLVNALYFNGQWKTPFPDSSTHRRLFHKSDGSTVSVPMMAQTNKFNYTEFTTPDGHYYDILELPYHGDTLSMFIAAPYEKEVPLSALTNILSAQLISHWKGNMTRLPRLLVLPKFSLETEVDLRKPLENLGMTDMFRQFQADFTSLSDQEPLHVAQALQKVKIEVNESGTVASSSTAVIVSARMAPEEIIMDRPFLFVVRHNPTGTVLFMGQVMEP
Method: Subsequently, human-derived tissue plasminogen activator (t-PA) (manufactured by American Diagnostica, Inc. (USA); the same applies hereinafter) adjusted to 0.35 pmol/μL was added thereto, and the mixture was further incubated at 37° C. for 15 minutes.

human PAI-1 [3] = target: T1, human PAI-1; assay: Measurement of PAI-1 inhibitory activity of compound group 2 (t-PA, S-2288 chromogenic substrate); details: PAI-1 activity of the system without compound after 30 minutes taken as 100%
Method: Subsequently, human-derived tissue plasminogen activator (t-PA) (manufactured by American Diagnostica, Inc. (USA); the same applies hereinafter) adjusted to 0.3 pmol/μL was added thereto, and the mixture was further incubated at 37° C. for 15 minutes.

human PAI-1 [4] = target: T1, human PAI-1; assay: Measurement of PAI-1 inhibitory activity of compound group 3 (t-PA, S-2288 chromogenic substrate; Table 4)
Method: Subsequently, tissue plasminogen activator (t-PA) (manufactured by American Diagnostica, Inc. (USA); the same applies hereinafter) adjusted to 0.3 pmol/μL was added thereto, and further incubated at 37° C. for 15 minutes.

human PAI-1 [5] = target: T1, human PAI-1; assay: Measurement of PAI-1 inhibitory activity of compound group 1 (t-PA, Spectrozyme t-PA chromogenic substrate); details: read-out: PAI-1 activity %
Method: Subsequently, human-derived tissue plasminogen activator (t-PA) (manufactured by American Diagnostica, Inc. (USA); the same applies hereinafter) adjusted to 0.05 pmol/μL was added thereto, and the mixture was further incubated at 37° C. for 60 minutes. Then, 0.25 mM of Spectrozyme t-PA synthetic substrate (manufactured by American Diagnostica, Inc. (USA); the same applies hereinafter), which is a chromogenic substrate, was added. The final mixture contained 50 mM Tris-HCl (pH 8), 150 mM NaCl, 1% DMSO, 0.1% PEG-6000, 0.2 mM CHAPS, 5 nM PAI-1, 2 nM t-PA, 0.2 mM Spectrozyme t-PA synthetic substrate, and each compound (10 μM or 2.5 μM).
Free radical p-nitroaniline removed from the chromogenic substrate (Spectrozyme t-PA) by t-PA action was measured using a spectrophotometer at an absorbance of 405 nm at 20-minute intervals, for 120 minutes.

hematopoietic stem cells [6] = assay: Frequency and absolute number of hematopoietic stem cells after bone-marrow transplantation (Experimental Example 8 (1)); assay type: in vivo, mice; details: 1 and 3 weeks after bone-marrow transplantation; compared with control group
Method: In accordance with the procedure of Experimental Example 7 (1), bone marrow was transplanted, and tPA or compound a was administered in the same manner as in Experimental Example 7. Physiological saline was administered to a control group. 1 and 3 weeks after bone-marrow transplantation, 12 mice of each group were measured for the number of bone-marrow mononucleic cells (BM MNC), the frequency and absolute number of Lin-SLAM cells, and the frequency and absolute number of LSK-CD34 negative cells.

hematopoietic stem cells [7] = assay: Cell cycle (Ki-67, BrdU) and apoptosis (Annexin V) of bone-marrow cells 1 week after bone-marrow transplantation (Experimental Example 9); assay type: in vivo, mice
Method: In accordance with Experimental Example 7 (1), bone-marrow transplantation was conducted, and after the transplantation, physiological saline (control group), tPA (tPA-administered group), or compound a (compound a-administered group) was administered.
1 week after bone-marrow transplantation, the bone marrow was collected, and Ki-67 protein, which is a cell division marker, was immunostained with anti-Ki-67-FITC antibody (BD Bioscience) to analyze the cells in the cell-division cycle by FACSCalibur.
Subsequently, the number of Ki-67 positive cells in the cells of LSK fraction was examined to confirm that the proliferation of hematopoietic stem cells is promoted by compound a.
In addition, to more accurately detect the cells that moved to the S phase, 5-bromo-2-deoxyuridine (BrdU)-FITC (BD Pharmingen) was administered to the control group, tPA group, and compound a-administered group 1 week after bone-marrow transplantation, 3 hours before the collection of bone marrow. 6 mice were used for each group.
Because BrdU is a thymine derivative, BrdU, substituting for thymine, is incorporated into genomic DNA or the like during DNA replication. BrdU more specifically reflects the S phase than Ki-67 protein.
1 week after bone-marrow transplantation, bone marrow was collected from the control group, tPA group, and compound a-administered group (6 mice for each group), and Annexin V, which appears specifically in apoptosis, was detected with anti-Annexin V antibody immunostaining.

hematopoietic stem cells [8] = assay: Fibrinolytic pathway activation and bone-marrow regeneration after lethal radiation (9Gy) and bone-marrow transplantation, compound a versus recombinant tPA (Experimental Example 7)
Method: Within 4 hours, 1.0×10^6 bone-marrow mononucleic cells (BM MNC) were intravenously inoculated into retro-orbital plexus. Concurrently with transplantation, compound a (dosage 100 mg/kg) or recombinant tPA (dosage 100 mg/kg, Eisai Co., Ltd) were administered as a test compound via oral gavage, and the test compound was orally administered for 5 consecutive days (administered group). As a control test, instead of the test compound, physiological saline (vehicle) used for dissolving compound a was orally administered in the same manner (control group).
Blood was collected 2 and 7 days after bone-marrow transplantation, and the active PAI-1 level (ng/mL), active tissue-type plasminogen activator (active tPA), plasmin level (ng/mL), cKit ligand, and total MMP-9 (Matrix metalloprotein-9) in the plasma were measured.

hematopoietic stem cells [9] = assay: Bone-marrow transplanted mice, compound c, G-CSF and G-CSF neutralizing antibody (Experimental Example 13); assay type: in vivo; details: G-CSF 150 μg/kg/day
Method: Bone-marrow transplanted mice were prepared in the same manner as in Experimental Example 4, and compound c, G-CSF, and G-CSF neutralizing antibody were examined for the effects. Specifically, the bone-marrow transplanted mice were divided into 5 groups as shown below (each group: n=5) and orally administered respective test drugs.
Group 1: vehicle group (physiological saline was administered via gavage) (“v group”)
Group 2: compound c group (compound c [10 mg/kg/day] was administered via gavage) (“TM group”)
Group 3: G-CSF group (G-CSF [150 μg/kg/day] was administered via gavage) (“G group”)
Group 4: vehicle+anti-G-CSF group (physiological saline+G-CSF neutralizing antibody [500 μg/kg/day] was administered via gavage) (“v+Ab group”)
Group 5: compound c+anti-G-CSF group (compound c [500 μg/kg/day]+G-CSF neutralizing antibody [500 μg/kg/day] was administered via gavage) (“TM+Ab group”)
Concurrently with bone-marrow transplantation, administration of physiological saline (vehicle) to the vehicle group via gavage was started, and the administration continued for 5 consecutive days. Concurrently with bone-marrow transplantation, administration of compound c (10 mg/kg/day) to the compound c group via gavage was started, and the administration continued for 5 consecutive days. Concurrently with bone-marrow transplantation, subcutaneous administration of G-CSF (150 μg/kg/day) to the G-CSF group was started, and the administration continued for 5 consecutive days. Concurrently with bone-marrow transplantation, gavage administration of physiological saline and subcutaneous administration of G-CSF neutralizing antibody (R&D) (500 μg/kg/day) to the vehicle+anti-G-CSF group were started, and the administration continued for 5 consecutive days. Concurrently with bone-marrow transplantation, gavage administration of compound c (10 mg/kg/day) and intraperitoneal administration of G-CSF neutralizing antibody (R&D) (500 μg/kg/day) to the compound c+anti-G-CSF group were started, and the administration continued for 5 consecutive days.
1 week after bone-marrow transplantation, plasma and bone-marrow fluids were collected from mice of each group (v group, TM group, G group, v+Ab group, and TM+Ab group), and the G-CSF concentration (pg/ml) was measured by ELISA. The following were determined in accordance with an ordinary procedure: (B) G-CSF concentration (pg/ml) in bone-marrow fluids, (C) total number of mononucleic cells (×10E7 cell) in the bone marrow, (D) proportion (%) of LSK CD34 negative cells in the bone marrow, (E) total number of LSK CD34 negative cells in the bone marrow, (F) proportion (%) of Lin-SLAM cells in the bone marrow, and (G) total number of Lin-SLAM cells in the bone marrow.

[10] = tPA group compared with control group, compound a group compared with tPA group

With `O=C(COCC(=O)Nc1ccc(Cl)cc1C(=O)O)Nc1cccc(-c2ccco2)c1` [Example 61 (compound group 3), 5-chloro-2-{[(2-{[3-(furan-2-yl)phenyl]amino}-2-oxoethoxy)acetyl]amino}benzoic acid] the survival (CML cells) was “some mice survived even after day 40”.

In the case of `O=C(Nc1cccc(-c2ccoc2)c1)C(=O)Nc1ccc(Cl)cc1C(=O)O` [Example 45 (compound group 3), 5-chloro-2-{[{[3-(furan-3-yl)phenyl]amino}(oxo)acetyl]amino}benzoic acid], the “frequency of hematopoietic stem cells” value (hematopoietic stem cells [1]) is reported as “increase” and the “self-renewal capacity of hematopoietic stem cells” value (hematopoietic stem cells [1]) is reported as “enhance”.

`O=C([O-])c1cc(Cl)ccc1NC(=O)C1CCCN(C(=O)c2cccc(-c3ccoc3)c2)C1.[Na+]` (stereo not drawn) [Example 11, sodium 5-chloro-2-{[(1-{[3-(furan-3-yl)phenyl]carbonyl}piperidin-3-yl)carbonyl]amino}benzoate] gave an activity at 20 µM (human PAI-1 [2]) of 68.2%, an activity at 50 µM (human PAI-1 [2]) of 26.1% and a PAI-1 activity % (human PAI-1 [3]; compound 50 μM) of 99.3%. For the same molecule, the PAI-1 activity % (human PAI-1 [3]; compound 100 μM) was 20.7%, the PAI-1 activity % (human PAI-1 [4]; compound concentration 20 μM) was 64.7% and the PAI-1 activity % (human PAI-1 [4]; compound concentration 50 μM) was 11.5%.

Molecule `O=C(Nc1ccc(Cl)cc1C(=O)[O-])c1cccc(-c2ccncc2)c1.[Na+]` [Example 8, sodium 5-chloro-2-({[3-(pyridin-4-yl)phenyl]carbonyl}amino)benzoate] has a PAI-1 activity % (human PAI-1 [3]; compound 50 μM) of 12.9%, a PAI-1 activity % (human PAI-1 [3]; compound 100 μM) of 9.3% and a PAI-1 activity % (human PAI-1 [4]; compound concentration 20 μM) of 95.6%. For the same molecule, the PAI-1 activity % (human PAI-1 [4]; compound concentration 50 μM) was 12.4%, the activity at 2.5 µM (human PAI-1 [5]) was 100% and the activity at 10 µM (human PAI-1 [5]) was 28.5%.

For “tPA: recombinant tPA (tissue-type plasminogen activator), Eisai Co., Ltd”, the “number of bone-marrow mononucleic cells” value (hematopoietic stem cells [6]) was “slightly larger”, the “proportion of cells that were induced apoptosis (Annexin V)” value (hematopoietic stem cells [7]; compared with control group) was “decrease” and the “cells in the S phase (BrdU incorporated into LSK cells)” value (hematopoietic stem cells [7]; control group 18.1%) was 18.8%. The “Ki-67 positive, cells classified into the LSK fraction taken as 100%” value (hematopoietic stem cells [7]; control group 43.3%) was 50.7%, the “cell count of cells at the S-G2-M phase (Ki-67) in bone-marrow mononucleic cells” value (hematopoietic stem cells [7]; control group 44.2%) was 50.8% and the “cell count of cells at the G0/G1 phase (Ki-67) in bone-marrow mononucleic cells” value (hematopoietic stem cells [7]; control group 55.8%) was 49.2%. For the same molecule, the “level of active tPA in plasma” value (hematopoietic stem cells [8]; 2 days after bone-marrow transplantation, among control, tPA and compound a groups) was “highest level”, the “expression of active PAI-1 in the plasma” value (hematopoietic stem cells [8]; compound a or recombinant tPA 100 mg/kg, 5 consecutive days, 2 and 7 days after bone-marrow transplantation) was “lower than that of the control group” and the “survival rate on day 28 from bone-marrow transplantation” value (hematopoietic stem cells [8]; lethal radiation 9Gy, 100 mg/kg, 5 consecutive days, n=15, control group 20%) was 50%. For the same molecule, the “platelet count in the peripheral blood” value (hematopoietic stem cells [8]; [10]) was “significantly increased” and the “white blood cell count in the peripheral blood” value (hematopoietic stem cells [8]; [10]) was “significantly increased”.

For `O=C(Nc1ccc(Cl)cc1C(=O)[O-])c1ccc(-c2cccc3cccnc23)cc1.[Na+]` [Example 67, sodium 5-chloro-2-({[4-(quinolin-8-yl)phenyl]carbonyl}amino)benzoate], the PAI-1 activity % (human PAI-1 [3]; compound 20 μM) was 99.8%, the PAI-1 activity % (human PAI-1 [3]; compound 50 μM) was 75.0% and the PAI-1 activity % (human PAI-1 [4]; compound concentration 20 μM) was 57.6%. For the same molecule, the PAI-1 activity % (human PAI-1 [4]; compound concentration 50 μM) was 8.1%, the activity at 2.5 µM (human PAI-1 [5]) was 90.4% and the activity at 10 µM (human PAI-1 [5]) was 0.6%.

For `O=C(Nc1ccc(Cl)cc1C(=O)[O-])c1cccc(-c2cccc3cnccc23)c1.[Na+]` [Example 66, sodium 5-chloro-2-({[3-(isoquinolin-5-yl)phenyl]carbonyl}amino)benzoate], the PAI-1 activity % (human PAI-1 [3]; compound 20 μM) was 97.7%, the PAI-1 activity % (human PAI-1 [3]; compound 50 μM) was 13.1% and the PAI-1 activity % (human PAI-1 [4]; compound concentration 20 μM) was 59.2%. It also gave a PAI-1 activity % (human PAI-1 [4]; compound concentration 50 μM) of 17.7%, an activity at 2.5 µM (human PAI-1 [5]) of 22.6% and an activity at 10 µM (human PAI-1 [5]) of 0.1%.

B1: G-CSF: granulocyte colony stimulating factor, administered 150 μg/kg/day (protein, UniProt P09919 31-207, looked up)
Granulocyte …: TPLGPASSLPQSFLLKCLEQVRKIQGDGAALQEKLVSECATYKLCHPEELVLLGHSLGIPWAPLSSCPSQALQLAGCLSQLHSGLFLYQGLLQALEGISPELGPTLDTLQLDVADFATTIWQQMEELGMAPALQPTQGAMPAFASAFQRRAGGVLVASHLQSFLEVSYRVLRHLAQP
In the case of B1, the “proportion and number of Lin-SLAM cells” value (hematopoietic stem cells [9]; single agents: TM (compound c) 10 mg/kg/day, G-CSF neutralizing antibody 500 μg/kg/day with vehicle, versus vehicle group) is reported as “increased”, the “G-CSF concentration in the plasma and bone-marrow fluids” value (hematopoietic stem cells [9]; single agents: compound c 10 mg/kg/day gavage, G-CSF neutralizing antibody 500 μg/kg/day with vehicle, 1 week after transplantation, versus vehicle) is reported as “significant increases” and the “proportion and number of LSK CD34 negative cells” value (hematopoietic stem cells [9]; single agents: compound c 10 mg/kg/day, G-CSF neutralizing antibody 500 μg/kg/day with vehicle, versus vehicle group) is reported as “increased”. The “number of BM MNC” value (hematopoietic stem cells [9]; single agents: compound c 10 mg/kg/day, versus vehicle group) was “more increased”.
